# Assay results published in article PMC4449006, “Targeting KRAS Oncogene in Colon Cancer Cells with 7-Carboxylate Indolo[3,2-b]quinoline Tri-Alkylamine Derivatives” (PLoS ONE, 2015).
# What was measured:
# T-Loop duplex DNA = assay: FRET melting assay, duplex DNA; format: binding; conditions: standard deviation < 0.2°C
# Protocol: The capacity of compounds 1a-d, 2a-d and the standard G4 ligand TMPyP4 (Fig 1) to bind and stabilize KRAS [26] and HSP90A [27] G4 DNA structures as well as duplex DNA (T-loop) was evaluated by a Fluorescence Resonance Energy Transfer (FRET) melting assay. […] It was observed that the basicity of side chains correlates positively with thermal G4 stabilization of all DNA sequences up to an optimal pKa ~ 8.0–9.0 (Fig 2). Heterocyclic amines at the end of alkyl side chain (1b and 2b) appear to improve binding to G4s and complex stabilization compared to the di-ethylamine group (1a and 2a), which cannot be explained by differences in basicity between terminal groups. […] However, this was not observed for the isomeric pair 1a / 2a.
# All oligonucleotides were purchased from Eurofins MWG Synthesis GmbH, Germany. The labeled oligonucleotides used in the FRET assays had attached the donor fluorophore FAM (6-carboxyfluorescein) and the acceptor fluorophore TAMRA (6-carboxytetramethylrhodamine): KRAS21R (5’-FAM-[…]-TAMRA-3’); HSP90A (5’- [FAM]-[…]-[TAMRA]-3’); T-Loop (5’-FAM-[…]-TAMRA-3’). Each oligonucleotide was initially diluted to a storage solution at 100 μM in nuclease free water (not DEPC-treated), purchased from Ambion Applied Biosystems UK.
# The ability of IQ3A and TMPyP4 to stabilize G-quadruplex and duplex DNA sequences was investigated using a Fluorescence Resonance Energy Transfer (FRET) assay. Stock solution of the oligonucleotides sequences at 20 μM and subsequent dilutions were obtained from storage solutions diluting with K-cacodylate buffer pH = 7.4, containing 60 mM K^+ (10 mM potassium cacodylate, 50 mM KCl). The FRET probe sequences were diluted from stock to the correct concentration (0.4 μM) and then annealed by heating to 95°C for 10 min, followed by cooling to RT. Test compounds were prepared as 1 mM in 10% DMSO and 10% 1mM HCl in HPLC-grade water. The rest of the dilutions were performed using FRET buffer. Annealed DNA (50 μL) and compound solution (50 μL) were distributed across 96-well RT-PCR plates (BioRad; MJ Research, Waltham, MA, USA). Relevant controls were also performed to check for interference with the assay. Fluorescence readings were made on a DNA Engine Opticon (MJ Research) with excitation at 450–495 nm and detection at 515–545 nm, taken at intervals of 0.5°C in the range 30–100°C, with a constant temperature being maintained for 30 s prior to each reading to ensure a stable value. Experiments were performed in triplicate. Final analysis of the data was carried out with GraphPad Prism 5.0 software (GraphPad Software, Inc). The advanced curve-fitting function in GraphPad Prism was used for calculation of ΔT m values and associated standard deviations.
# HCT116 cells [1] = assay: MTS short-term cytotoxicity assay (72 h), HCT116; format: cell-based, human
# Protocol: (§1) The short-term effect of compounds at 72 h on cell growth was studied using colorectal carcinoma cell lines with different KRAS and TP53 genotypes: human colorectal carcinoma HCT116 (mut Kras, wild-type (wt) p53), and human metastatic colorectal adenocarcinoma SW620 (mut Kras, mut p53). In parallel, we also used the immortalized human embryonic kidney cell line HEK293T (wt Kras, wt p53) and normal human colon fibroblast cells CCD18co (wt Kras, wt p53).
# (§2) SW620 human colorectal adenocarcinoma cells (European Collection of Cell Cultures, ECACC, Porton Down, Wiltshire, UK), HEK293T human embryonic kidney cells (ATCC, LGC Standards, UK) HCT116 human colon carcinoma cells (ECACC), HCT116 p53(+/+) and p53(−/−) isogenic human colon cancer cells (GRCF Cell Center and Biorepository, the Johns Hopkins University, School of Medicine, Baltimore, MD, USA), were grown in Dulbecco’s modified Eagle’s medium (DMEM) supplemented with 10% fetal bovine serum, and 1% antibiotic/antimycotic (Invitrogen, Grand Island, NY, USA), CCD18co human colon fibroblasts (ATCC, CRL-1459) were grown in Minimum Essential Medium (MEM) supplemented with 10% fetal bovine serum, 1% antibiotic/antimycotic, 2 mM GlutaMAX, 0,1 mM Non-essential amino acids (NEAA) (Invitrogen) and […] Recombinant Human TNF-α (Peprotech, USA) and maintained at 37°C in a humidified atmosphere of 5% CO2.
# (§3) Cell viability was evaluated by the tetrazolium dye (MTS) Short-Term Cytotoxicity Assay. […] Following 72 h of compound exposure, cell viability was evaluated using the CellTiter 96 AQueous Non-Radioactive Cell Proliferation Assay (Promega, Madison, WI, USA), using 3-(4,5-dimethylthiazol-2-yl)-5-(3-carboxymethoxyphenyl)-2-(4-sulfophenyl)-2H-tetrazolium, inner salt (MTS) as previously described [35]. Cell viability data were expressed as mean ±SD from at least three independent experiments. IC50 and IC65 values were determined using GaphPad Prism v.5.00 (GraphPad Software). In selected experiments, cell viability was also assessed by trypan blue exclusion assay, and general cell death by LDH activity from cell culture supernatants.
# HEK293T cells = assay: MTS short-term cytotoxicity assay (72 h), HEK293T; format: cell-based, human; conditions: MTS
# Protocol: as §1, §2, §3
# CCD18co cells = assay: MTS short-term cytotoxicity assay (72 h), CCD18co; format: cell-based; conditions: Homo sapiens, CCD-18Co, MTS, standard errors ≤ 0.1, read-out: CCD18co IC50
# Protocol: as §1, §2, §3
# HCT116 cells [2] = test system: HCT116 cells; set-up: method as in PMID 23960016; conditions: HCT116 vs primary rat hepatocytes; cited from earlier work
# KRAS mRNA = KRAS mRNA steady-state levels by Taqman Real-time RT-PCR; conditions: IC50 concentrations
smiles,measurement,setting,value
CCN(CC)CCOC(=O)c1ccc2c(c1)c1nc3ccccc3c(OCCN(CC)CC)c1n2CCN(CC)CC [1a],ΔTm (°C) T-Loop 1 μM,T-Loop duplex DNA; 1 μM compound,<2 °C
same,ΔTm (°C) T-Loop 2 μM,T-Loop duplex DNA; 2 μM compound,3 °C
same,HCT116 IC65,"HCT116 cells [1]; 72 h, MTS, standard errors ≤ 0.1",3.42 µM
same,Selective index (SI) = IC50 CCD-18co / IC50 HCT116,HCT116 cells [1]; CCD18co vs HCT116,2.46
same,IC50,"HCT116 cells [1]; Homo sapiens, HCT-116, 72 h, MTS, standard errors ≤ 0.1, read-out: HCT116 IC50",1.88 µM
same,IC50,"HEK293T cells; Homo sapiens, HEK-293T, standard errors ≤ 0.1, read-out: HEK293T IC50",3.23 µM
same,HEK293T IC65,HEK293T cells; standard errors ≤ 0.1,6.06 µM
same,IC50,CCD18co cells,4.63 µM
same,Selective growth inhibition of KRAS mutant HCT116 cells compared to primary rat hepatocytes,HCT116 cells [2],100 fold
same,down-regulation of KRAS transcription (mRNA),"KRAS mRNA; HCT116, 72 h",~40%
same,down-regulation of KRAS transcription (mRNA),"KRAS mRNA; SW620, 72 h",not significantly so
